Several values for one entry are separate records, joined by “and”; a condition that tells them apart may be missing. Equal entries are not always repeated.
Assays:
Type in all cases: ADME, organism-based
Conditions in all cases: in vivo
[1] = AUClast in C57BL/6 mouse at 10 mg/kg, po measured for 24 hrs by LC/MS/MS analysis; parameters: dose 10 mg/kg, time 24 hrs, route po
[2] = AUC (infinity) in C57BL/6 mouse at 10 mg/kg, po measured for 24 hrs by LC/MS/MS analysis; parameters: dose 10 mg/kg, time 24 hrs, route po
[3] = Tmax in C57BL/6 mouse at 10 mg/kg, po measured for 24 hrs by LC/MS/MS analysis
[4] = Half life in C57BL/6 mouse at 10 mg/kg, po measured for 24 hrs by LC/MS/MS analysis
[5] = Cmax in C57BL/6 mouse at 10 mg/kg, po measured for 24 hrs by LC/MS/MS analysis; parameters: time 24 hrs, dose 10 mg/kg, route po
[6] = Half life in C57BL/6 mouse at 25 mg/kg, ip measured for 24 hrs by LC/MS/MS analysis
[7] = Cmax in C57BL/6 mouse at 25 mg/kg, ip measured for 24 hrs by LC/MS/MS analysis; parameters: dose 25 mg/kg, time 24 hrs, route ip
[8] = AUC (infinity) in C57BL/6 mouse at 25 mg/kg, ip measured for 24 hrs by LC/MS/MS analysis; parameters: time 24 hrs, dose 25 mg/kg, route ip
[9] = Tmax in C57BL/6 mouse at 25 mg/kg, ip measured for 24 hrs by LC/MS/MS analysis
[10] = AUClast in C57BL/6 mouse at 25 mg/kg, ip measured for 24 hrs by LC/MS/MS analysis; parameters: dose 25 mg/kg, time 24 hrs, route ip

Row | AUC(0-t) at 24 h [1] [ng·h/mL] | AUC(0-inf) [2] [ng·h/mL] | Tmax [3] [h] | half-life [4] [h] | Cmax [5] [ng/mL] | half-life [6] [h] | Cmax [7] | AUC(0-inf) [8] [ng·h/mL] | Tmax [9] [h] | AUC(0-t) at 24 h [10] [ng·h/mL] | Compound
1 | 2470 | 2730 | 1 | 2.15 | 724 |  |  |  |  |  | CC(=O)c1c(C)c2cnc(Nc3ccc(N4CCN(CC5CCN(c6ccc7c(c6)C(=O)N(C6CCC(=O)NC6=O)C7=O)CC5)CC4)cn3)nc2n(C2CCCC2)c1=O (stereo not given)
2 |  |  |  |  |  | 7 | 2550 ng/mL and 2.6 µM | 9230 | 0.58 | 8210 | CC(=O)c1c(C)c2cnc(Nc3ccc(N4CCN(CCCCC(=O)N[C@H](C(=O)N5C[C@H](O)C[C@H]5C(=O)N[C@@H](C)c5ccc(-c6scnc6C)cc5)C(C)(C)C)CC4)cn3)nc2n(C2CCCC2)c1=O

Source: ChEMBL document CHEMBL5365505, “Targeted Degradation of CDK4/6: An Innovative Approach to Overcoming Cancer Drug Resistance” (ACS Med Chem Lett, 2023)
